The test system of one data set is arteria saphena rings. In words: Vasorelaxant effect in vitro (phenylephrine-contracted arteria saphena rings). In kind it is cell-based, Rabbits. The conditions noted are these: Oryctolagus cuniculus; rabbit arteria saphena rings, contractions generated by phenylephrine, 0.1% DMSO; read-out: IC50, concentration necessary to reduce the height of the contraction of the control value by 50%. As for the experimental part:
Vasorelaxant Effect In Vitro
Rabbits are anesthetized or killed by intravenous injection of thiopental sodium (about 50 mg/kg) and exsanguinated. The arteria saphena is removed and divided into rings 3 mm wide. The individual rings are in each case mounted on a pair of hooks of triangular shape, open at the end and made of special wire (Remanium®) having a diameter of 0.3 mm. Under pretension, each ring is introduced into a 5 ml organ bath containing carbogen-gassed Krebs-Henseleit solution at 37° C. with the following composition (mM): NaCl: 119; KCl: 4.8; CaCl2×2H2O: 1; MgSO4×7H2O: 1.4; KH2PO4: 1.2; NaHCO3: 25; glucose: 10; bovine serum albumin: 0.001%. The force of contraction is detected with Statham UC2 cells, amplified and digitized via A/D converters (DAS-1802 HC, Keithley Instruments, Munich) and recorded in parallel on chart recorders. Contractions are generated by adding phenylephrine.
After several (generally 4) control cycles, the substance to be investigated is added in each further run in increasing dosage in each case, and the height of the contraction reached under the influence of the test substance is compared with the height of the contraction reached in the last preceding run. The concentration necessary to reduce the height of the control value by 50% (IC50) is calculated from this. The standard application volume is 5 μl. The DMSO content in the bath solution corresponds to 0.1%.

Counter-ions that a name gives are not always drawn. Bounds are passed on as bounds.

For the molecule `O=C(O)CCCCN(Cc1ccc(C(=O)O)cc1)Cc1cccc(Oc2ccc(-c3ccc(C(F)(F)F)cc3)cc2)c1` [Example 2], the IC50 with arteria saphena rings is 55000 pM.

Regarding `O=C(O)CCCCN(Cc1ccc(C(=O)O)cc1)Cc1cccc(Oc2ccc(C3CCCCC3)cc2)c1` [Example 3, 4-({(4-Carboxybutyl)[3-(4-cyclohexylphenoxy)benzyl]amino}methyl)-benzoic acid hydrochloride], the IC50 in the data set on arteria saphena rings turned out to be 36000 pM.

With `O=C(O)CCCCN(CCc1ccccc1OC(F)(F)c1ccc(-c2ccc(C(F)(F)F)cc2)cc1)Cc1ccc(C(=O)O)cc1` [Example 6, 4-({(4-Carboxybutyl)[2-(2-{difluoro[4′-(trifluoromethyl)-1,1′-biphenyl-4-yl]methoxy}phenyl)ethyl]amino}methyl)benzoic acid], the IC50 with arteria saphena rings is 41 pM.

In general, melting point refers to the temperature, or range, at which the solid turns liquid. As to `O=C(O)CCCCN(CCc1cc(F)ccc1COc1ccc(C2CCCCC2)cc1)Cc1ccc(C(=O)O)cc1` [Example 12, 4-{[(4-Carboxybutyl)(2-{2-[(4-cyclohexylphenoxy)methyl]-5-fluorophenyl}ethyl)amino]methyl}benzoic acid], the melting point is above 250 °C. In addition, the IC50 in the data set with arteria saphena rings was determined as 400 pM.

In the case of `O=C(O)CCCCN(CCc1cc(F)ccc1COc1ccc(-c2ccc(C(F)(F)F)cc2)cc1)Cc1ccc(C(=O)O)cc1` [Example 17], the IC50 with arteria saphena rings came out at 260 pM.

(Values after US6939990B2, “Derivatives of dicarboxylic acid having pharmaceutical properties” (Bayer Aktiengesellschaft, priority 2001, dated 2005).)
